From PMC5218480 (PLoS ONE, 2017)

System: MV-4-11 cells
Assay: Gene expression microarray analysis (Affymetrix PrimeView) and GSEA
Format: cell-based, human
Parameters: RFU PODN (11730768_x_at) / Fold change /veh PODN (11730768_x_at) / RFU LINC00158 (11744669_a_at) / Fold change /veh LINC00158 (11744669_a_at) / RFU DUSP10 (11751237_a_at) / Fold change /veh DUSP10 (11751237_a_at) / RFU ID3 (11757404_x_at) / Fold change /veh ID3 (11757404_x_at) / RFU PLEKHG5 (11737974_s_at) / Fold change /veh PLEKHG5 (11737974_s_at) / RFU LRRC4B (11730491_at) / Fold change /veh LRRC4B (11730491_at) / RFU GIMAP4 (11747438_a_at) / Fold change /veh GIMAP4 (11747438_a_at) / RFU KRT8 (11758183_x_at) / Fold change /veh KRT8 (11758183_x_at) / RFU CNN1 (11734310_a_at) / Fold change /veh CNN1 (11734310_a_at) / RFU VPS37D (11726825_at) / Fold change /veh VPS37D (11726825_at) / RFU C10orf10 (11716522_x_at) / Fold change /veh C10orf10 (11716522_x_at) / RFU KIR2DL2 /// KIR2DL4 /// KIR2DL5A /// KIR2DL5B /// KIR2DS1 /// KIR2DS2 /// KIR2DS3 /// KIR2DS4 /// KIR3DL3 /// KIR3DL3 /// KIR3DS1 (11738374_at) / Fold change /veh KIR2DL2 /// KIR2DL4 /// KIR2DL5A /// KIR2DL5B /// KIR2DS1 /// KIR2DS2 /// KIR2DS3 /// KIR2DS4 /// KIR3DL3 /// KIR3DL3 /// KIR3DS1 (11738374_at) / RFU C1QL1 (11718748_at) / Fold change /veh C1QL1 (11718748_at) / RFU TMPRSS4 (11747572_a_at) / Fold change /veh TMPRSS4 (11747572_a_at) / RFU HAMP (11756126_x_at) / Fold change /veh HAMP (11756126_x_at) / RFU RNFT2 (11725882_a_at) / Fold change /veh RNFT2 (11725882_a_at) / RFU NR4A2 (11747474_a_at) / Fold change /veh NR4A2 (11747474_a_at) / RFU ABCC12 (11746883_a_at) / Fold change /veh ABCC12 (11746883_a_at) / RFU TMEM136 (11760407_x_at) / Fold change /veh TMEM136 (11760407_x_at) / RFU CLDN22 /// WWC2 (11732394_at) / Fold change /veh CLDN22 /// WWC2 (11732394_at) / RFU HLA-DPB1 (11760878_x_at) / Fold change /veh HLA-DPB1 (11760878_x_at) / RFU SPINT1 (11716480_a_at) / Fold change /veh SPINT1 (11716480_a_at) / RFU GAP43 (11754022_s_at) / Fold change /veh GAP43 (11754022_s_at) / RFU A4GNT (11735810_at) / Fold change /veh A4GNT (11735810_at) / RFU PRB3 (11715151_x_at) / Fold change /veh PRB3 (11715151_x_at) / RFU TUBB4B (11761932_at) / Fold change /veh TUBB4B (11761932_at) / RFU CAPN14 (11732068_a_at) / Fold change /veh CAPN14 (11732068_a_at) / RFU TMCC2 (11721928_a_at) / Fold change /veh TMCC2 (11721928_a_at) / RFU IRGQ (11745062_a_at) / Fold change /veh IRGQ (11745062_a_at) / RFU FAM174B (11720279_a_at) / Fold change /veh FAM174B (11720279_a_at) / RFU TMPRSS4 (11748680_a_at) / Fold change /veh TMPRSS4 (11748680_a_at) / RFU FAM212B (11763350_a_at) / Fold change /veh FAM212B (11763350_a_at) / RFU PLEKHG5 (11743358_a_at) / Fold change /veh PLEKHG5 (11743358_a_at) / RFU ZSCAN30 (11745921_a_at) / Fold change /veh ZSCAN30 (11745921_a_at) / RFU CMKLR1 (11741424_a_at) / Fold change /veh CMKLR1 (11741424_a_at) / RFU LOC101060620 /// MAPK8IP1 (11723275_at) / Fold change /veh LOC101060620 /// MAPK8IP1 (11723275_at) / RFU SPTSSB (11747773_x_at) / Fold change /veh SPTSSB (11747773_x_at) / RFU PRSS12 (11739890_at) / Fold change /veh PRSS12 (11739890_at) / RFU BIN1 (11741810_x_at) / Fold change /veh BIN1 (11741810_x_at) / RFU WNT11 (11732464_a_at) / Fold change /veh WNT11 (11732464_a_at) / RFU C10orf10 (11716521_a_at) / Fold change /veh C10orf10 (11716521_a_at) / RFU C5orf56 (11738089_at) / Fold change /veh C5orf56 (11738089_at) / RFU CYB561 (11721691_x_at) / Fold change /veh CYB561 (11721691_x_at) / RFU ANKRD19P (11752326_a_at) / Fold change /veh ANKRD19P (11752326_a_at) / RFU OR2T12 /// OR2T33 /// OR2T8 (11738714_s_at) / Fold change /veh OR2T12 /// OR2T33 /// OR2T8 (11738714_s_at) / RFU VCAN (11748164_a_at) / Fold change /veh VCAN (11748164_a_at) / RFU JSRP1 (11732532_at) / Fold change /veh JSRP1 (11732532_at) / RFU KRTAP10-11 (11738290_x_at) / Fold change /veh KRTAP10-11 (11738290_x_at) / RFU MYO3A (11730013_a_at) / Fold change /veh MYO3A (11730013_a_at) / RFU EBF3 (11725865_a_at) / Fold change /veh EBF3 (11725865_a_at) / RFU CAMK2N1 (11719241_x_at) / Fold change /veh CAMK2N1 (11719241_x_at) / RFU C5orf56 (11738088_a_at) / Fold change /veh C5orf56 (11738088_a_at) / RFU OLFML3 (11715873_a_at) / Fold change /veh OLFML3 (11715873_a_at) / RFU LOC100653217 /// NTM (11731650_a_at) / Fold change /veh LOC100653217 /// NTM (11731650_a_at) / RFU MAPK11 (11762145_a_at) / Fold change /veh MAPK11 (11762145_a_at) / RFU FIZ1 (11724087_x_at) / Fold change /veh FIZ1 (11724087_x_at) / RFU OASL (11726364_x_at) / Fold change /veh OASL (11726364_x_at) / RFU SOX15 (11748057_x_at) / Fold change /veh SOX15 (11748057_x_at) / RFU CD79A (11719716_a_at) / Fold change /veh CD79A (11719716_a_at) / RFU HIST1H1D (11736915_at) / Fold change /veh HIST1H1D (11736915_at) / RFU CASKIN2 (11723855_a_at) / Fold change /veh CASKIN2 (11723855_a_at) / RFU LOC730098 (11760151_x_at) / Fold change /veh LOC730098 (11760151_x_at) / RFU OR4N2 (11742367_at) / Fold change /veh OR4N2 (11742367_at) / RFU PRRT2 (11749266_a_at) / Fold change /veh PRRT2 (11749266_a_at) / RFU SNX32 (11753110_a_at) / Fold change /veh SNX32 (11753110_a_at) / RFU CDHR5 (11726645_a_at) / Fold change /veh CDHR5 (11726645_a_at) / RFU RCAN1 (11760418_a_at) / Fold change /veh RCAN1 (11760418_a_at) / RFU FAM167A (11723789_a_at) / Fold change /veh FAM167A (11723789_a_at) / RFU FAM26E (11764081_at) / Fold change /veh FAM26E (11764081_at) / RFU ISYNA1 (11749810_s_at) / Fold change /veh ISYNA1 (11749810_s_at) / RFU ACY1 (11761880_at) / Fold change /veh ACY1 (11761880_at) / RFU 11764098_at / Fold change /veh 11764098_at / RFU SAMD14 (11745864_x_at) / Fold change /veh SAMD14 (11745864_x_at) / RFU NPB (11741838_a_at) / Fold change /veh NPB (11741838_a_at) / RFU TMPRSS6 (11731388_a_at) / Fold change /veh TMPRSS6 (11731388_a_at) / RFU KRTAP10-2 (11738614_at) / Fold change /veh KRTAP10-2 (11738614_at) / RFU ARHGAP8 /// PRR5-ARHGAP8 (11727945_x_at) / Fold change /veh ARHGAP8 /// PRR5-ARHGAP8 (11727945_x_at) / RFU KRTAP5-7 /// NADSYN1 (11734609_at) / Fold change /veh KRTAP5-7 /// NADSYN1 (11734609_at) / RFU RASL12 (11751679_a_at) / Fold change /veh RASL12 (11751679_a_at) / RFU CDKN2B (11736163_a_at) / Fold change /veh CDKN2B (11736163_a_at) / RFU PRF1 (11729649_at) / Fold change /veh PRF1 (11729649_at) / RFU, ZNF638 /// ZNF638-IT1 / Fold change vs veh, ZNF638 /// ZNF638-IT1 / RFU, PANK3 / Fold change vs veh, PANK3 / RFU, SH3YL1 / Fold change vs veh, SH3YL1 / RFU, ZEB2 / Fold change vs veh, ZEB2 / RFU, NRIP1 / Fold change vs veh, NRIP1 / RFU, PTTG1IP / Fold change vs veh, PTTG1IP / RFU, CAPN2 / Fold change vs veh, CAPN2 / RFU, MED14 / Fold change vs veh, MED14 / RFU, SNORA58 / Fold change vs veh, SNORA58 / RFU, C1orf63 / Fold change vs veh, C1orf63 / RFU, LRRFIP1 / Fold change vs veh, LRRFIP1 / RFU, NDUFAF7 / Fold change vs veh, NDUFAF7 / RFU, SLC12A2 / Fold change vs veh, SLC12A2 / RFU, IBTK / Fold change vs veh, IBTK / RFU, ESF1 / Fold change vs veh, ESF1 / Fold change vs veh, TMEM50B / RFU, TAOK1 / Fold change vs veh, TAOK1 / RFU, ACBD3 / Fold change vs veh, ACBD3 / RFU, TMA16 / Fold change vs veh, TMA16 / RFU, RWDD3 / Fold change vs veh, RWDD3 / RFU, BCAT1 / Fold change vs veh, BCAT1 / RFU, EDEM3 / Fold change vs veh, EDEM3 / RFU, TMEM33 / Fold change vs veh, TMEM33 / RFU, WDR75 / Fold change vs veh, WDR75 / RFU, AHCTF1 / Fold change vs veh, AHCTF1 / RFU, TFRC / Fold change vs veh, TFRC / RFU, ZDHHC17 / Fold change vs veh, ZDHHC17 / RFU, NOM1 / Fold change vs veh, NOM1 / RFU, ARL8B / Fold change vs veh, ARL8B / RFU, ZBTB11 / Fold change vs veh, ZBTB11 / RFU, TAMM41 / Fold change vs veh, TAMM41 / RFU, KIAA1704 /// LOC100996395 / Fold change vs veh, KIAA1704 /// LOC100996395 / RFU, ING1 / Fold change vs veh, ING1 / RFU, TRMT61B / Fold change vs veh, TRMT61B / RFU, FUBP3 / Fold change vs veh, FUBP3 / RFU, TP53 / Fold change vs veh, TP53 / RFU, TNKS2 / Fold change vs veh, TNKS2 / RFU, ZFP14 / Fold change vs veh, ZFP14 / RFU, ACTR2 / Fold change vs veh, ACTR2 / RFU, PPP3R1 / Fold change vs veh, PPP3R1 / RFU, PIK3R1 / Fold change vs veh, PIK3R1 / RFU, HNRNPA1 / Fold change vs veh, HNRNPA1 / RFU, RNF170 / Fold change vs veh, RNF170 / RFU, ZNF28 / Fold change vs veh, ZNF28 / RFU, RNGTT / Fold change vs veh, RNGTT / RFU, OGT / Fold change vs veh, OGT / RFU, BRD1 / Fold change vs veh, BRD1 / RFU, MARS / Fold change vs veh, MARS / RFU, ZNF655 / Fold change vs veh, ZNF655 / RFU, FAHD1 / Fold change vs veh, FAHD1 / RFU, BDP1 / Fold change vs veh, BDP1 / RFU, LRRCC1 / Fold change vs veh, LRRCC1 / RFU, ARID1A / Fold change vs veh, ARID1A / RFU, ZNF146 / Fold change vs veh, ZNF146 / RFU, ZNF330 / Fold change vs veh, ZNF330 / RFU, GPN3 / Fold change vs veh, GPN3 / RFU, C9orf123 / Fold change vs veh, C9orf123 / RFU, N4BP2L2 / Fold change vs veh, N4BP2L2 / RFU, ARFIP1 / Fold change vs veh, ARFIP1 / RFU, FAM179B / Fold change vs veh, FAM179B / RFU, BCL10 / Fold change vs veh, BCL10 / RFU, UHRF1BP1L / Fold change vs veh, UHRF1BP1L / RFU, BET1 / Fold change vs veh, BET1 / RFU, CNOT2 / Fold change vs veh, CNOT2 / RFU, ZNF268 / Fold change vs veh, ZNF268 / Fold change vs veh, ZNF507 / RFU, DGCR2 / Fold change vs veh, DGCR2 / RFU, WDSUB1 / Fold change vs veh, WDSUB1 / Fold change vs veh, HSP90B1 /// MIR3652 / RFU, ADSS / Fold change vs veh, ADSS / RFU, GK / Fold change vs veh, GK / RFU, ZNF148 / Fold change vs veh, ZNF148 / RFU, TAF9 / Fold change vs veh, TAF9 / RFU, SLC1A5 / Fold change vs veh, SLC1A5 / RFU, SLMO2 / Fold change vs veh, SLMO2 / RFU, ABCC4 / Fold change vs veh, ABCC4 / RFU, LOC101060439 /// RAP1B / Fold change vs veh, LOC101060439 /// RAP1B / RFU, RFX7 / Fold change vs veh, RFX7 / RFU, GTPBP10 / Fold change vs veh, GTPBP10 / RFU, CNEP1R1 / Fold change vs veh, CNEP1R1 / RFU, BIVM-ERCC5 /// ERCC5 / Fold change vs veh, BIVM-ERCC5 /// ERCC5 / RFU, ILF3 / Fold change vs veh, ILF3 / RFU 11762660_at / Fold change /veh 11762660_at / RFU VCAN (11757783_s_at) / Fold change /veh VCAN (11757783_s_at) / RFU DDX43 (11728927_at) / Fold change /veh DDX43 (11728927_at) / RFU KRT8 (11758188_x_at) / Fold change /veh KRT8 (11758188_x_at) / RFU NKD1 (11759106_at) / Fold change /veh NKD1 (11759106_at) / RFU SRD5A1 (11742802_a_at) / Fold change /veh SRD5A1 (11742802_a_at) / RFU TPSAB1 /// TPSB2 (11721975_s_at) / Fold change /veh TPSAB1 /// TPSB2 (11721975_s_at) / RFU GSTM3 (11746129_a_at) / Fold change /veh GSTM3 (11746129_a_at) / RFU IL23R (11737362_x_at) / Fold change /veh IL23R (11737362_x_at) / RFU TMEM51 (11727254_a_at) / Fold change /veh TMEM51 (11727254_a_at) / RFU PIWIL2 (11732686_x_at) / Fold change /veh PIWIL2 (11732686_x_at) / RFU ORM1 (11744905_x_at) / Fold change /veh ORM1 (11744905_x_at) / RFU CCDC152 (11743942_at) / Fold change /veh CCDC152 (11743942_at) / RFU ECM1 (11717891_a_at) / Fold change /veh ECM1 (11717891_a_at) / RFU IL23R (11748794_a_at) / Fold change /veh IL23R (11748794_a_at) / RFU TNFAIP8L3 (11732012_x_at) / Fold change /veh TNFAIP8L3 (11732012_x_at) / RFU MBOAT4 (11741988_at) / Fold change /veh MBOAT4 (11741988_at) / RFU 11764193_at / Fold change /veh 11764193_at / RFU TMEM53 (11763286_at) / Fold change /veh TMEM53 (11763286_at) / RFU MAGEB2 (11727129_at) / Fold change /veh MAGEB2 (11727129_at) / RFU TMEM200A (11744735_a_at) / Fold change /veh TMEM200A (11744735_a_at) / RFU CCDC152 (11751479_a_at) / Fold change /veh CCDC152 (11751479_a_at) / RFU FAM211A (11726209_a_at) / Fold change /veh FAM211A (11726209_a_at) / RFU RGS16 (11746705_a_at) / Fold change /veh RGS16 (11746705_a_at) / RFU VCAN (11755009_s_at) / Fold change /veh VCAN (11755009_s_at) / RFU RHOB (11743442_s_at) / Fold change /veh RHOB (11743442_s_at) / RFU RGS16 (11720943_a_at) / Fold change /veh RGS16 (11720943_a_at) / RFU RGS16 (11720944_at) / Fold change /veh RGS16 (11720944_at) / RFU, VPS4B / Fold change vs veh, VPS4B / RFU, CREB1 / Fold change vs veh, CREB1 / RFU, DNAJC13 / Fold change vs veh, DNAJC13 / RFU, GNAQ / Fold change vs veh, GNAQ / RFU, CDK5R1 / Fold change vs veh, CDK5R1 / RFU, ZRANB3 / Fold change vs veh, ZRANB3 / RFU, CUL4A / Fold change vs veh, CUL4A / RFU, CCNY / Fold change vs veh, CCNY / RFU, UFL1 / Fold change vs veh, UFL1 / RFU, COG3 / Fold change vs veh, COG3 / RFU, DIAPH2 / Fold change vs veh, DIAPH2 / RFU, SKA2 / Fold change vs veh, SKA2 / RFU, AFF3 / Fold change vs veh, AFF3 / RFU, LMF1 / Fold change vs veh, LMF1 / RFU, IPO11 / Fold change vs veh, IPO11 / RFU, DFFB / Fold change vs veh, DFFB / RFU, FOXP1 / Fold change vs veh, FOXP1 / RFU, CARD8 / Fold change vs veh, CARD8 / RFU, STRN3 / Fold change vs veh, STRN3 / RFU, ADK / Fold change vs veh, ADK / RFU, RASSF2 / Fold change vs veh, RASSF2 / RFU, WIPF1 / Fold change vs veh, WIPF1 / RFU, LARP1B / Fold change vs veh, LARP1B / RFU, RASA1 / Fold change vs veh, RASA1 / RFU, RB1 / Fold change vs veh, RB1 / RFU, PPFIA1 / Fold change vs veh, PPFIA1 / RFU, MAT2A / Fold change vs veh, MAT2A / RFU, CCT5 / Fold change vs veh, CCT5 / RFU, WDR92 / Fold change vs veh, WDR92 / RFU, CUX1 / Fold change vs veh, CUX1 / RFU, TTC7A / Fold change vs veh, TTC7A / RFU, TMEM135 / Fold change vs veh, TMEM135 / RFU, DEPTOR / Fold change vs veh, DEPTOR / RFU, CPM / Fold change vs veh, CPM / RFU, DNAJB6 / Fold change vs veh, DNAJB6 / RFU, CACNA2D3 / Fold change vs veh, CACNA2D3 / RFU, DTX4 / Fold change vs veh, DTX4 / RFU, TFCP2 / Fold change vs veh, TFCP2 / RFU, GMCL1 /// GMCL1P1 / Fold change vs veh, GMCL1 /// GMCL1P1 / RFU, AEBP2 / Fold change vs veh, AEBP2 / RFU, SNHG1 /// SNORD22 /// SNORD25 /// SNORD26 /// SNORD27 /// SNORD28 /// SNORD29 /// SNORD31 / Fold change vs veh, SNHG1 /// SNORD22 /// SNORD25 /// SNORD26 /// SNORD27 /// SNORD28 /// SNORD29 /// SNORD31 / Fold change (Aza/veh), C12orf56 (ProbeSet 11735607_a_at) / Fold change (ACY-1035/veh), C12orf56 (ProbeSet 11735607_a_at) / Fold change (Aza/veh), FGFR1OP (ProbeSet 11751329_s_at) / Fold change (ACY-1035/veh), FGFR1OP (ProbeSet 11751329_s_at) / Fold change (Aza/veh), VPS36 (ProbeSet 11739960_a_at) / Fold change (ACY-1035/veh), VPS36 (ProbeSet 11739960_a_at) / RFU SYPL1 (11715823_x_at) / Fold change /veh SYPL1 (11715823_x_at) / RFU IGFBP7 (11715501_s_at) / Fold change /veh IGFBP7 (11715501_s_at) / RFU REEP3 (11722064_at) / Fold change /veh REEP3 (11722064_at) / RFU IGLL1 (11728026_x_at) / Fold change /veh IGLL1 (11728026_x_at): dose or concentration left out as unconfirmed
Details: ProbeSet 11748670_a_at; LIST B

Nc1ccc(-c2cccs2)cc1NC(=O)c1ccc2c(c1)cc(C1CC1)n2CCN1CCOCC1 [ACY-1035]
Fold change vs veh, PIK3R1: 0.90
